Values of other authors as cited in US20050053970A1, “Methods and compositions for identifying peptide aptamers capable of altering a cell phenotype” (priority 2001, published 2005).

Columns and labels:
[1] = molecular target: T1, mutant human growth hormone (Thr175 Gly-hGH) and extracellular domain of the hGH receptor (Trp104 Gly-hGHbp) (Homo sapiens, UniProt P01241+P10912, T201G/W122G); details: Thr175 Gly-hGH with Trp104 Gly-hGHbp
T1 construct: the extracellular domain of the hGH receptor (Trp104 Gly-hGHbp)

[2] = tested on: mammals; details: in vivo
[3] = molecular target: α/δ and α/γ sites in T. californica electric organ (Tetronarce californica, UniProt P02710+P02714+P02718)

| Compound | increase of the affinity of the mutant hormone for its receptor [1] | effect in mammals [2] | discrimination between the α/δ and α/γ sites [3] | activity in T. californica [3] |
| --- | --- | --- | --- | --- |
| Clc1cnc(C(Cl)(Cl)Cl)[nH]1 [5-chloro-2-trichloromethylimidazole] | more than 1000 fold | – | – | – |
| ECCNPACGRHYSC-NH2 [α-conotoxin GI] | – | lethal to mammals at low concentrations | finds the α/δ site preferable to the α/γ site | – |
| ICCNPACGPLYSC-NH2 [α-conotoxin SI] | – | essentially no effect | does not distinguish | active |
